According to US20220380430A1, “Non-Transgenic Functional Rescue of Neuropeptides” (Worcester Polytechnic Institute, priority 2021, published 2022):

Experiments:
C. elegans = experiment: Single worm attraction assay (SWAA) of ascarosides; type: in vivo; conditions: males; in words
Experimental: The spot retention assay was adapted to allow for better characterization of individual worm behavior and robust interrogation of attraction to small molecules. The attractiveness of 1 μM ascr #8 (FIG. 11A) were compared across multiple strains of C. elegans (the wild-type N2 strain, the high incidence of male him-5 and him-8 strains, and the chemosensory cilia defective osm-3), using the novel behavioral assay, the single worm attraction assay (SWAA) (FIG. 11A). In this assay, individual animals were placed directly into the spot of the ascaroside cue (A) while simultaneously removing any potential of male-male contact. […] Likewise, a vehicle control (V) is also included, to account of any changes in dwell time that are driven by the components of the vehicle. The outer forty wells of a 48-well suspension culture plate (Olympus Plastics, Cat #: 25-103) were seeded with 200 μL of standard NGM agar. To prepare the plates for the assay, they were acclimated to room temperature, at which point each well was seeded with 65 μL of OP50 E. coli. The assay plates were then transferred to a 37° C. incubator with the lid tilted for 4 h to allow the bacterial culture to dry on the agar. Once the bacterial culture dried, the lid was replaced the plate was stored at 20° C. until used in the assay. Fifty to sixty L4 worms were segregated by sex and stored at 20° C. for 5 h to overnight to be assayed as young adults. 0.8 μL of either vehicle control or ascaroside #8 was placed in the center of the well corresponding to that condition within the quadrant being tested, following a random block design (FIG. 11A). A single worm was placed in each of the 10 wells to be assayed, and the plate was transferred to a light source and camera and recorded for 15 m. […] Raw dwell time values were calculated by subtracting the time a worm exited the cue (center of the well in spatial controls), from the time it entered, as in the SRA. This was determined per visit, and the average dwell time was calculated for each animal in the quadrant. Averages of the four-quadrant means were determined per plate, and a minimum of five plates were assayed per strain/condition. The mean raw dwell time across five plates was calculated and used for statistical analyses and graphical display. […] An “attractive visit” was first determined for each plate as any visit greater than two standard deviations above the mean dwell time within the vehicle control for that plate. Any individual visit meeting this threshold was scored as a “1”, and any below was scored a “0”. The percent visits per-worm that were attractive was determined, and the average of each quadrant taken. […] The average percent of attractive visits across five plates was calculated and used for statistical analyses and graphical display.

trh-1 mutant worms = experiment: Size comparison (body volume) after rescue-by-feeding; type: in vivo, C. elegans; conditions: for restoration of body volume: trh-1 lof animals fed E. coli expressing peptide, in words; for Relative Body Volume: trh-1 mutant animals fed peptide, N2 set as 100%
Experimental: All animals were maintained on bacterial lawns of OP50 E. coli, at 20° C., on NGM agar plates until the start of experiments. Mutant or control animals were transferred onto lawns of DH5α E. coli expressing either scramble peptide or the rescue peptide-of-interest on NGM plates containing […] AMP and 1 mM IPTG. Animals were reared on the peptide-expressing lawns for at least 48 hours at 20° C. before assaying for rescue of mutant phenotype at the appropriate developmental stage.
The body morphology different of trh-1 mutants was compared to wild-type worms by body volume measurements. Wild-type (N2) and trh-1 animals were synchronized by embryonic starvation following alkaline hypochlorite protocols. Ten gravid hermaphrodites from OP50 E. coli plates were picked into 30 μL drops of alkaline hypochlorite solution (20% sodium hypochlorite, 500 mM KOH). Two drops were placed on either side of an unseeded NGM plate, resulting in 20 animals per plate. Plates were then incubated for 24 hours at 20° C. before L1 larval animals washed with 1 mL M9 (22 mM KH2PO4, 42.25 mM Na2HPO4, 85.5 mM NaCl, 1 mM MgSO4) per unseeded NGM plate. Allow L1 worms to settle into pellet before removing M9 supernatant. Repeat washing step 2 more times. Plate worm pellet onto NGM with […] AMP and 1 mM IPTG plates containing 75 μL peptide lawns.
After at 48 hours at 20° C., animals were recorded using a Basler acA2500-14 uM camera using WormLab software (WormLab 4.1; MBF Bioscience, 2017) for 65 seconds. Worm length, width, and area were calculated within the WormLab software (FIG. 5C-FIG. 5H). As the WormLab worm width metric is an average of cross-sections throughout the length of each worm, this was used to calculate the volume of a worm as a cylinder, with the Volume=π*(0.5*width)^2*length (FIG. 2A-FIG. 2B, FIG. 5A-FIG. 5B).
Two to four plates were recorded per day for at least three days to generate data sets. Control plates of N2 and trh-1 animals raised on the scramble peptide were grown alongside every rescue feeding. Each “worm track” was considered an n=1. Tracks were excluded if (1) worm tracks less than 10 seconds, or (2) worms were further than two standard deviations from the mean metric. Following tests for normality, comparisons were made using either Mann-Whitney tests for direct comparisons between N2 and trh-1 animals reared on OP50, or Kruskal-Wallis non-parametric ANOVAs and Dunn's multiple comparisons tests for animals raised on peptide feeding strains. Comparisons were made for metrics: length (FIG. 5C-FIG. 5D), width (FIG. 5e-FIG. 5F), area (FIG. 5G-FIG. 5H), and volume (FIG. 2A-FIG. 2B, FIG. 5A-FIG. 5B).

Row | Compound | male attraction in the SWAA (C. elegans) | restoration of body volume (trh-1 mutant worms) | Relative Body Volume (trh-1 mutant worms)
1 | C[C@H](CCCC/C=C/C(=O)O)O[C@@H]1O[C@@H](C)[C@H](O)C[C@H]1O [ascr #3] | maintains its ability to attract males in the SWAA | – | –
2 | ANELF-NH2 [TRH-1B] | – | complete restoration of wild-type body volume | ~100%
3 | GRELF-NH2 [TRH-1A] | – | complete restoration of wild-type body volume | ~100%
